# Data from patent publication US20010006673A1, “LUTEIN- CONTAINING SUPPLEMENT AND PROCESS FOR ENHANCING IMMUNE RESPONSE IN ANIMALS” (priority 1998, published 2001).
# Columns and labels:
# [1] = test system: Canine thyroid adenocarcinoma cells; assay: NK cell cytotoxicity, dogs; type: in vivo, Beagle dogs
# Description: Canine thyroid adenocarcinoma cells were used as target cells in assessing NK cell cytotoxic activity. This cell line was previously shown to be susceptible to killing by canine NK cell. Target cells were cultured in a T75 flask with 20 mL minimum essential medium (MEM; Sigma Chem. Co., St. Louis, Mo.) supplemented with 10% fetal calf serum (FC S), 100 U/mL of penicillin and 100 μg/mL of streptomycin. When confluent, target cells were trypsinized, washed 3 times and resuspended to 5×10^5 cells/mL in complete medium (RPMI-1640+10% FCS+100 U/mL of penicillin+100 μ/mL of streptomycin). Triplicate 100 μL aliquots of the target cells were pipetted into 96-well U-bottom plates (Costar, Cambridge, Mass.) and incubated for 8 hours to allow cell adherence. Lymphocytes (effector cells; 100 μL) isolated by percoll separation (as described above) were then added to the target cells to provide an effector:target cell (E:T) ratio of 10:1. After 10 hours of incubation at 37° C., 20 μl of a substrate containing 5 μg of 3-(4,5-dimethylthiazol-2-yl)-2,5-diphenyltetrazolium bromide (MTT) was added. […] Optical density was measured at 570 nm using a microplate reader. The percentage of NK cell-specific lysis was calculated as follows: Specific cytotoxicity (%)=100×{1−[(OD of target cells and effector cells−OD of effector cells)/(OD of target cells)]}
# [2] = test system: mouse splenocytes; details: dietary lutein; cited from earlier work
# [3] = test system: dogs; assay: Delayed type hypersensitivity (skin induration) response in dogs; type: in vivo, Beagle dogs; details: for DTH response to PHA / DTH response to vaccine: dogs
# Description: Skin induration response was assessed in all dogs on weeks 0, 6, and 12. Dogs were injected intradermally in the flank area with saline (8.5 g/L; control), an attenuated polyvalent vaccine containing canine distemper virus, canine adenovirus type-2, canine parainfluenza virus and parvovirus (Vanguard 5, Smithkline Beacham, West Chester, Pa.; specific antigen), and PHA (0.5 g/L; nonspecific antigen). The doses of vaccine and PHA used were previously determined to provide optimal skin response in Beagle dogs of similar age. The injection site was clipped and wiped with 70% ethyl alcohol. The injection volume was 100 μL. Skin induration was measured at 0, 24, 48 and 72 h post-injection with the aid of a pressure-sensitive digital micrometer (Mitsutoyo, Tokyo, Japan) and response was expressed as a percentage of skin thickness measured at 0 h.
# [4] = test system: peripheral blood mononuclear cells (PBMC); assay: Mitogen-induced lymphocyte proliferation by PBMC, whole blood culture, dogs; type: in vivo, Beagle dogs
# Description: Blood collected on weeks 0, 2, 4, 8 and 12 were used to assess mitogen-induced lymphocyte proliferation by peripheral blood mononuclear cells (PBMC). Whole blood culture was used in order to mimic in vivo conditions. Mitogens used were phytohemagglutinin (PHA), concanavalin A (Con A) and pokeweed mitogen (PWM). Whole blood was thoroughly mixed and then diluted 1:12 with RPMI-1640 containing 25 mM of Hepes, penicillin (100 U/mL) and streptomycin (100 μg/mL) (Sigma, St. Louis, Mo.). […] Triplicate 150 μL volumes were pipetted into 96-well round bottom plates and 50 μl of the appropriate mitogens added. The final concentrations of the mitogens in culture were 2 and 10 μg/mL for PHA, 1 and 5 μg/mL for Con A and 0.5 and 2.5 μg/mL for PWM. The two mitogen concentrations gave maximum (the higher mitogen concentration) and suboptimal (lower mitogen concentration) proliferative responses in preliminary studies using blood from similar animals. The mixture was incubated for 72 h at 37° C. in a humidified incubator under a 5% CO2 atmosphere. Four hours prior to the termination of the incubation period, 20 μL of [^3H]-thymidine (1 [μCi/well) were added. Cells were harvested onto fiberglass filters and radioactivity was counted by liquid scintillation. Proliferation response of PBMC was expressed as stimulation index (cpm of stimulated cultures/cpm of unstimulated cultures).
# [5] = test system: peripheral blood mononuclear cells (PBMC); assay: Peripheral blood mononuclear cell proliferation, whole blood, cats; type: in vivo, Tabby cats
# Description: Whole blood was used to analyze the mitogenic proliferative responsiveness of peripheral blood mononuclear cells (PBMC) to phytohemagglutinin (PHA), Con A and pokeweed mitogen (PWM) in order to mimic in vivo conditions. Heparinized whole blood was diluted 1:12 with RPMI-1640 containing 25 mM of Hepes, penicillin (100 U/mL) and streptomycin (100 μg/mL) (Sigma, St. Louis, Mo.) (hereafter termed complete medium). […] The mitogens were used at the following final concentrations previously determined to provide both maximal (the higher mitogen concentration) and suboptimal (the lower mitogen concentration) proliferation: PHA (1.25 and 0.25 μg/mL), Con A (2.5 and 0.5 μg/mL) or PWM (0.125 and 0.025 μg/mL). Tritiated thymidine uptake was measured by liquid scintillation and PBMC proliferation response was expressed as cpm of stimulated cultures corrected for cpm of unstimulated cultures.
# [6] = test system: IgG; assay: Serum IgG by single radial immunodiffusion, cats; type: in vivo, Tabby cats
# Description: Serum IgG concentration was determined by single radial immunodiffusion (SRID). Goat antiserum to cat IgG (15%, whole molecule) (Sigma, St. Louis, Mo.) was incorporated into agarose (10 g/L in PBS; Sigma, St. Louis, Mo.). The loading volume for the test serum and standard was 5 μL and the plates were incubated for 24 hours in a humidified chamber. Ring diameters were measured using a SRID reader (Transidyne General Corp., Ann Arbor, Mich.).
smiles,measurement,setting,value
CC1=C[C@H](O)CC(C)(C)[C@H]1/C=C/C(C)=C/C=C/C(C)=C/C=C/C=C(C)/C=C/C=C(C)/C=C/C1=C(C)C[C@@H](O)CC1(C)C [lutein],Effect on NK cell cytotoxic activity,[1],did not significantly influence
same,"Specific lysis of target cells by PBMC, average","[1]; across all treatments and sampling periods, E:T 10:1",49.1±1.1%
same,Lymphocyte proliferation,[2],enhance
same,DTH response to PHA vs unsupplemented dogs,"[3]; dogs fed 20 mg lutein, week 12",significantly higher
same,DTH response to PHA,"[3]; week 6, 48 and 72 h",no significant treatment difference
same,DTH response to vaccine,"[3]; week 6, 48 and 72 h post-injection",dose-related
same,DTH response to vaccine,"[3]; week 6, 24 h",not significant
same,DTH response to PHA,"[3]; week 6, 24 h post-injection",dose-related
same,DTH response to vaccine,[3]; week 12,no significant dietary effect
same,DTH response to PHA,"[3]; week 12, 24, 48 and 72 h, all doses",general dose-dependent increase
same,Spontaneous proliferation by unstimulated PBMC,[4]; dogs,did not significantly influence
same,PWM-stimulated PBMC proliferative response,"[4]; dogs fed 10 mg lutein, week 8",higher
same,Con A-stimulated PBMC proliferation,"[4]; dogs fed 10 mg lutein, weeks 8 and 12, 5 μg/mL Con A",higher
same,PHA-stimulated PBMC proliferative response vs unsupplemented,"[4]; dogs fed 20 mg lutein, week 8, P<0.01",enhanced
same,PWM-stimulated PBMC proliferation vs unsupplemented controls,"[4]; dogs fed 20 mg lutein, week 8 and 12, both concentrations of PWM",significantly higher
same,PHA-stimulated PBMC proliferative response vs unsupplemented,"[4]; dogs fed 20 mg lutein, week 12, 2 and 10 μg/mL PHA, P<0.01",enhanced
same,Con A-stimulated PBMC proliferation,"[4]; dogs fed 20 mg lutein, weeks 8 and 12, both concentrations of Con A",higher
same,PHA-stimulated PBMC proliferation,"[4]; dogs fed 5 and 10 mg lutein, week 8, 10 μg/ml PHA",higher
same,PHA-stimulated PBMC response,"[4]; dogs, weeks 0 and 4",no significant effect
same,PWM-stimulated PBMC proliferation,"[4]; dogs, weeks 0 and 4",no significant treatment difference
same,Spontaneous proliferation by unstimulated PBMC,[5]; cats,did not significantly influence
same,PWM-stimulated PBMC proliferation (increased),"[5]; cats fed 1 mg lutein, week 4, 0.025 μg/mL PWM",differences were significant
same,PBMC proliferative response to Con A,"[5]; cats fed 10 mg lutein, Con A 2.5 μg/mL, week 4",significantly higher
same,PWM-stimulated PBMC proliferation (increased),"[5]; cats fed 1 and 10 mg lutein, week 4, 0.125 μg/mL PWM",differences were significant
same,"Tritiated thymidine uptake, average","[5]; cats, 0.25 μg/mL PHA","1,934±147 cpm"
same,"Tritiated thymidine uptake, average","[5]; cats, 1.25 μg/mL PHA","6,464±504 cpm"
same,PBMC proliferative response to Con A,"[5]; cats, Con A 2.5 μg/mL, week 8 and 12",treatment differences were not observed
same,PBMC proliferative response to Con A,"[5]; cats, suboptimal dose (0.5 μg/mL) of Con A",No significant treatment difference
same,PHA-induced PBMC proliferation,"[5]; cats, throughout the study",no significant dietary effects
same,"Spontaneous proliferation by unstimulated PBMC, average","[5]; cats, throughout the study","1,744±147 cpm"
same,Plasma IgG vs unsupplemented animals,"[6]; cats fed 10 mg lutein, week 12",significantly higher
same,Concentrations of plasma IgG,"[6]; cats fed 1 or 10 mg lutein, week 8",significantly higher
